Source: US8716242B2, “β-hairpin peptidomimetics” (priority 2009, dated 2014)
Where two headings read alike, the source gives them in different places. Bridge positions count the residues as written; N and C are the ends. Square brackets hold non-standard residues; d marks the D form. Side chains are listed from the residue outwards. Peptide text beside a SMILES is read from it. * marks the point of attachment. Cholyl = C[C@H](CCC(=O)*)[C@H]1CC[C@H]2[C@@H]3[C@H](O)C[C@@H]4C[C@H](O)CC[C@]4(C)[C@H]3C[C@H](O)[C@]12C; Benzoyl(4-dodecyloxy) = CCCCCCCCCCCCOc1ccc(C(=O)*)cc1; Benzoyl(4-octyloxy) = CCCCCCCCOc1ccc(C(=O)*)cc1; Stearoyl = CCCCCCCCCCCCCCCCCC(=O)*; Myristoyl = CCCCCCCCCCCCCC(=O)*; Decanoyl = CCCCCCCCCC(=O)*; Dab = NCC[C@H](N)C(=O)O

Tests used:
[1] = target: T1, human CXCR4 (Homo sapiens, UniProt P61073); assay: Ca2+-assay: CXCR4-antagonizing activity (SDF-1 induced calcium mobilization); format: cell-based
T1 construct: expressed in transfected cells; host or cells: mouse pre-B cell line 300-19
T1 sequence (P61073 whole entry): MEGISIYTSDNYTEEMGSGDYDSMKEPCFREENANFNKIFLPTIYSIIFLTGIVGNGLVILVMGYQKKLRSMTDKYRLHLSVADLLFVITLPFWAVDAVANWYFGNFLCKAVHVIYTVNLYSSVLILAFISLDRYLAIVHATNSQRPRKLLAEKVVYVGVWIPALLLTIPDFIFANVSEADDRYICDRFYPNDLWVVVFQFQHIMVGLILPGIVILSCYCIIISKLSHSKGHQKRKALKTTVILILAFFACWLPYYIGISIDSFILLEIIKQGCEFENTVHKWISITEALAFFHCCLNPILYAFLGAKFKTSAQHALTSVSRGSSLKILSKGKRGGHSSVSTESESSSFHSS
Text: 2.3. Ca^2+-Assay: CXCR4-Antagonizing Activity of the Peptides
Increases in intracellular calcium were monitored using a Flexstation 384 (Molecular Devices, Sunnyvale, Calif.) to assay the peptides for CXCR4 antagonism in a mouse pre-B cell line 300-19 stably transfected with human CXCR4 (E. Oberlin, A. Amara, F. Bachelerie, C. Bessia, J.-L. Virelizier, F. Arenzana-Seisdedos, O, Schwartz, J.-M. Heard, I. Clark-Lewis, D. F. Legler, M. Loetscher, M. Baggiolini, B. Moser, Nature 1996, 382, 833-835; M. Loetscher, T. Geiser, T. O'Reilly, R. Zwalen, M. Baggiolini, B. Moser, J. Biol. Chem. 1994, 269, 232-237; M. D'Apuuo, A. Rolink, M. Loetscher, J. A. Hoxie, I. Clark-Lewis, F. Melchors, M. Baggiolini, B. Moser, Eur. J. Immunol. 1997, 27, 1788-1793). The cells were batch loaded with the Calcium 4 Assay kit (Molecular Devices) in assay buffer (Hanks Balanced salt solution [HBSS], 20 mM HEPES, pH 7.4, 0.1% BSA) for 1 h at room temperature and labeled cells were dispensed into black well assays plates (Costar No. 3603). Calcium mobilization induced by stromal-derived factor-1 (SDF-1) was measured in the Flexstation 384 (excitation: 485 nm; emission: 525 nm) for 90 seconds. Antagonist activity of peptides was determined by spiking the cells with compounds prior to SDF-1 addition. Dose response curves (compound concentration versus % maximum response for SDF-1) were determined for each antagonist and IC50 values were calculated by fitting the data to a four parameter logistic equation using SoftmaxPro 4.8 (Molecular Devices).

[2] = Cytotoxicity, MTT reduction assay, HELA cells; format: cell-based; conditions: human, HELA cells (Acc57), 12.5-50 μM
Summary of the method: (§1)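 HELA (4000/well) and COS-7 (3400/well) cells were grown 24 h, then exposed 48 h at 37° C to peptides at 12.5, 25 and 50 μM in triplicate. MTT reduction read at 595 nm; growth % relative to time-zero, and GI50 interpolated by trend line.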

[3] = Cytotoxicity, MTT reduction assay, COS-7 cells; format: cell-based; conditions: African green monkey, COS-7 cells (CRL-1651), 12.5-50 μM
Summary of the method: as §1

[4] = tested on: human red blood cells (hRBC); assay: Hemolysis of human red blood cells; format: cell-based; conditions: 20% hRBC, 1 h, 37° C.
Protocol: The peptides were tested for their hemolytic activity against human red blood cells (hRBC). Fresh hRBC were washed three times with phosphate buffered saline (PBS) and centrifuged for 10 min at 2000×g. Compounds (100 μM) were incubated with 20% hRBC (v/v) for 1 h at 37° C. and shaking at 300 rpm. The final erythrocyte concentration was approximately 0.9×10^9 cells/mL. A value of 0% and 100% cell lyses, respectively, was determined by incubation of hRBC in the presence of PBS containing 0.001% acetic acid and 2.5% Triton X-100 in H2O, respectively. The samples were centrifuged, the supernatants were 8-fold diluted in PBS buffer and the optical densities (OD) were measured at 540 nm. The 100% lyses value (OD540H2O) gave an OD540 of approximately 0.5-1.0.
Percent hemolysis was calculated as follows: (OD540peptide/OD540H2O)×100%. 2.6. Plasma Stability

[5] = Plasma stability in human plasma; format: in vitro ADME; conditions: for human pl. T1/2 / half-life at 10 μM: up to 1440 min; for half-life at 10 μM: read-out: human pl. T1/2
Summary of the method: (§2)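 Peptides (1 mM DMSO/H2O stock) were spiked into human or mouse plasma in triplicate and incubated at 37 °C, sampling from 0 to 1440 min. Samples were quenched in formic acid/acetonitrile and analysed by LC/MS MRM. Remaining percent of t=0 was calculated and T1/2 derived by trend fitting.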

[6] = Plasma stability in mouse plasma; format: in vitro ADME; conditions: for half-life at 10 μM / mouse pl. T1/2: up to 1440 min; for half-life at 10 μM: read-out: mouse pl. T1/2
Summary of the method: as §2

[7] = mouse pre-B cell line 300-19 transfected with human CXCR4, SDF-1 induced Ca2+ mobilization, read-out: IC50% [nM] ± SD, CXCR4 receptor
[8] = human plasma, 37° C., 1440 min, read-out: human pl. cpd left at 1440 min
[9] = mouse plasma, 37° C., 1440 min, read-out: mouse pl. cpd left at 1440 min

SMILES | IC50 [1, 7] [nM] | GI50 at 48 h [2] [µM] | GI50 at 48 h [3] [µM] | Hemolysis at 100 μM [4] [%] | remaining at 24 h, 10 μM [5, 8] [%] | human pl. T1/2 ([5]; human plasma, 37° C.) [h] | remaining at 24 h, 10 μM [6, 9] [%] | half-life at 10 μM ([6]; mouse plasma, 37° C.) [h] | half-life at 10 μM ([5]; human plasma, 37° C.) [h] | remaining at 24 h, 10 μM ([5]; human, plasma) [%] | remaining at 24 h, 10 μM ([6]; mouse, plasma) [%] | mouse pl. T1/2 ([6]; mouse plasma, 37° C.) [h] | IC50 [1] [nM]
CCCCCCCCCC(=O)NCCCC[C@@H]1NC(=O)[C@H](Cc2ccc(O)cc2)NC(=O)[C@@H]2CSSC[C@H](NC(=O)[C@H]([C@@H](C)O)NC(=O)[C@H](Cc3c[nH]cn3)NC(=O)[C@H](Cc3ccc(O)cc3)NC(=O)[C@@H]3CCCN3C(=O)[C@H]3CCCN3C(=O)[C@H](CCCCN)NC1=O)C(=O)N[C@@H](CCCNC(=N)N)C(=O)N[C@@H](C)C(=O)N[C@H](Cc1ccc(O)cc1)C(=O)N[C@@H](CCN)C(=O)N[C@@H](CCCNC(=N)N)C(=O)N[C@@H](Cc1ccc(O)cc1)C(=O)N2 [Ex. 14] (cyclo(YHTCRA[dY][Dab]RYCYK(Decanoyl)K[dP]P); disulfide 4-11) | 40.8 ± 12 | > 50 | > 50 | 0.6 | 91 | 24 | 23 | 9.42 | – | – | – | – | –
CCCCCCCCCC(=O)NCCCC[C@@H]1NC(=O)[C@H](Cc2ccc(O)cc2)NC(=O)[C@@H]2CSSC[C@H](NC(=O)[C@H]([C@@H](C)O)NC(=O)[C@H](Cc3c[nH]cn3)NC(=O)[C@H](Cc3ccc(O)cc3)NC(=O)[C@@H]3CCCN3C(=O)[C@@H](Cc3ccc(O)cc3)NC(=O)[C@H](CCCCN)NC1=O)C(=O)N[C@@H](CCCNC(=N)N)C(=O)N[C@@H](C)C(=O)N1CCC[C@@H]1C(=O)N[C@@H](CCN)C(=O)N[C@@H](CCCNC(=N)N)C(=O)N[C@@H](Cc1ccc(O)cc1)C(=O)N2 [Ex. 16] (cyclo(YHTCRA[dP][Dab]RYCYK(Decanoyl)K[dY]P); disulfide 4-11) | 18.2 ± 11 | > 50 | > 50 | 0.5 | – | – | – | 10.3 | 19.9 | 48 | 35 | – | –
CCCCCCCCCCCCCC(=O)NCCCC[C@@H]1NC(=O)[C@H](Cc2ccc(O)cc2)NC(=O)[C@@H]2CSSC[C@H](NC(=O)[C@H](Cc3ccc(O)cc3)NC(=O)[C@H](Cc3c[nH]cn3)NC(=O)[C@H](Cc3ccc(O)cc3)NC(=O)[C@@H]3CCCN3C(=O)[C@H]3CCCN3C(=O)[C@H](CCCCN)NC1=O)C(=O)N[C@@H](CO)C(=O)N[C@@H](C)C(=O)N1CCC[C@@H]1C(=O)N[C@@H](CCN)C(=O)N[C@@H](CCCNC(=N)N)C(=O)N[C@@H](Cc1ccc(O)cc1)C(=O)N2 [Ex. 18] (cyclo(YHYCSA[dP][Dab]RYCYK(Myristoyl)K[dP]P); disulfide 4-11) | 15.7 ± 3.9 | > 25 | > 50 | 9.2 | 71 | 24 | 78 | – | – | – | – | 24 | –
CCCCCCCCCCCCCC(=O)NCCCC[C@@H]1NC(=O)[C@H](Cc2ccc(O)cc2)NC(=O)[C@@H]2CSSC[C@H](NC(=O)[C@H](C)NC(=O)[C@H](Cc3c[nH]cn3)NC(=O)[C@H](Cc3ccc(O)cc3)NC(=O)[C@@H]3CCCN3C(=O)[C@H]3CCCN3C(=O)[C@H](CCCCN)NC1=O)C(=O)N[C@@H](CCCNC(=N)N)C(=O)N[C@@H](C)C(=O)N1CCC[C@@H]1C(=O)N[C@@H](CCN)C(=O)N[C@@H](CCCNC(=N)N)C(=O)N[C@@H](Cc1ccc(O)cc1)C(=O)N2 [Ex. 19] (cyclo(YHACRA[dP][Dab]RYCYK(Myristoyl)K[dP]P); disulfide 4-11) | 9.1 ± 4.2 | > 32 | > 50 | 1.2 | 99 | 24 | 76 | – | – | – | – | 24 | –
CCCCCCCCCCCCCCCCCC(=O)NCCCC[C@@H]1NC(=O)[C@H](Cc2ccc(O)cc2)NC(=O)[C@@H]2CSSC[C@H](NC(=O)[C@H](Cc3ccc(O)cc3)NC(=O)[C@H](Cc3c[nH]cn3)NC(=O)[C@H](Cc3ccc(O)cc3)NC(=O)[C@@H]3CCCN3C(=O)[C@H]3CCCN3C(=O)[C@H](CCCCN)NC1=O)C(=O)N[C@@H](CO)C(=O)N[C@@H](C)C(=O)N1CCC[C@@H]1C(=O)N[C@@H](CCN)C(=O)N[C@@H](CCCNC(=N)N)C(=O)N[C@@H](Cc1ccc(O)cc1)C(=O)N2 [Ex. 22] (cyclo(YHYCSA[dP][Dab]RYCYK(Stearoyl)K[dP]P); disulfide 4-11) | 7.3 ± 3 | > 35 | > 50 | 9.6 | 72 | 24 | 82 | – | – | – | – | 24 | –
CCCCCCCCOc1ccc(C(=O)NCCCC[C@@H]2NC(=O)[C@H](Cc3ccc(O)cc3)NC(=O)[C@@H]3CSSC[C@H](NC(=O)[C@H](C)NC(=O)[C@H](Cc4c[nH]cn4)NC(=O)[C@H](Cc4ccc(O)cc4)NC(=O)[C@@H]4CCCN4C(=O)[C@H]4CCCN4C(=O)[C@H](CCCCN)NC2=O)C(=O)N[C@@H](CCCNC(=N)N)C(=O)N[C@@H](C)C(=O)N2CCC[C@@H]2C(=O)N[C@@H](CCN)C(=O)N[C@@H](CCCNC(=N)N)C(=O)N[C@@H](Cc2ccc(O)cc2)C(=O)N3)cc1 [Ex. 23] (cyclo(YHACRA[dP][Dab]RYCYK(Benzoyl(4-octyloxy))K[dP]P); disulfide 4-11) | – | > 22 | > 50 | 7.8 | 100 | 24 | 74 | – | – | – | – | 24 | 8.3 ± 3.2
CCCCCCCCCCCCOc1ccc(C(=O)NCCCC[C@@H]2NC(=O)[C@H](Cc3ccc(O)cc3)NC(=O)[C@@H]3CSSC[C@H](NC(=O)[C@H](Cc4ccc(O)cc4)NC(=O)[C@H](Cc4c[nH]cn4)NC(=O)[C@H](Cc4ccc(O)cc4)NC(=O)[C@@H]4CCCN4C(=O)[C@H]4CCCN4C(=O)[C@H](CCCCN)NC2=O)C(=O)N[C@@H](CO)C(=O)N[C@@H](C)C(=O)N2CCC[C@@H]2C(=O)N[C@@H](CCN)C(=O)N[C@@H](CCCNC(=N)N)C(=O)N[C@@H](Cc2ccc(O)cc2)C(=O)N3)cc1 [Ex. 24] (cyclo(YHYCSA[dP][Dab]RYCYK(Benzoyl(4-dodecyloxy))K[dP]P); disulfide 4-11) | – | > 29 | > 50 | 10.9 | 24 | – | 22 | 9.27 | 2.12 | – | – | – | 6.1 ± 4.5
C[C@H](CCC(=O)NCC(=O)NCCCC[C@@H]1NC(=O)[C@H](CCC(N)=O)NC(=O)[C@H](Cc2ccc(O)cc2)NC(=O)[C@@H]2CSSC[C@H](NC(=O)[C@H]([C@@H](C)O)NC(=O)[C@H](Cc3c[nH]cn3)NC(=O)[C@H](Cc3ccc(O)cc3)NC(=O)[C@@H]3CCCN3C(=O)[C@H]3CCCN3C1=O)C(=O)N[C@@H](CCCNC(=N)N)C(=O)NCC(=O)N1CCC[C@@H]1C(=O)N[C@@H](CCN)C(=O)N[C@@H](CCCNC(=N)N)C(=O)N[C@@H](Cc1ccc(O)cc1)C(=O)N2)[C@H]1CC[C@H]2[C@@H]3[C@H](O)C[C@@H]4C[C@H](O)CC[C@]4(C)[C@H]3C[C@H](O)[C@]12C [Ex. 34] (cyclo(YHTCRG[dP][Dab]RYCYQK([Gly-Cholyl])[dP]P); disulfide 4-11) | – | > 45 | > 50 | 0.6 | 100 | 24 | 87 | – | – | – | – | 24 | 7.2 ± 0.3
